Assay results reported in BindingDB's records for patent US20240199605 (Janssen Pharmaceutica, 2024).

Target: Mitogen-activated protein kinase kinase kinase 14 (Homo sapiens, UniProt Q99558)
Test: Inhibition of auto-phosphorylation of recombinant human NF-kappaB-inducing kinase (NIK/MAP3K14) activity (AlphaScreen)
Description: All compounds tested were dissolved in dimethyl sulfoxide (DMSO) and further dilutions were made in assay buffer. The final DMSO concentration was 0.7% (v/v) in assays. […] The assays were carried out in 384 well Proxiplates (Perkin Elmer).

Chain of Mitogen-activated protein kinase kinase kinase 14 (Q99558 whole entry): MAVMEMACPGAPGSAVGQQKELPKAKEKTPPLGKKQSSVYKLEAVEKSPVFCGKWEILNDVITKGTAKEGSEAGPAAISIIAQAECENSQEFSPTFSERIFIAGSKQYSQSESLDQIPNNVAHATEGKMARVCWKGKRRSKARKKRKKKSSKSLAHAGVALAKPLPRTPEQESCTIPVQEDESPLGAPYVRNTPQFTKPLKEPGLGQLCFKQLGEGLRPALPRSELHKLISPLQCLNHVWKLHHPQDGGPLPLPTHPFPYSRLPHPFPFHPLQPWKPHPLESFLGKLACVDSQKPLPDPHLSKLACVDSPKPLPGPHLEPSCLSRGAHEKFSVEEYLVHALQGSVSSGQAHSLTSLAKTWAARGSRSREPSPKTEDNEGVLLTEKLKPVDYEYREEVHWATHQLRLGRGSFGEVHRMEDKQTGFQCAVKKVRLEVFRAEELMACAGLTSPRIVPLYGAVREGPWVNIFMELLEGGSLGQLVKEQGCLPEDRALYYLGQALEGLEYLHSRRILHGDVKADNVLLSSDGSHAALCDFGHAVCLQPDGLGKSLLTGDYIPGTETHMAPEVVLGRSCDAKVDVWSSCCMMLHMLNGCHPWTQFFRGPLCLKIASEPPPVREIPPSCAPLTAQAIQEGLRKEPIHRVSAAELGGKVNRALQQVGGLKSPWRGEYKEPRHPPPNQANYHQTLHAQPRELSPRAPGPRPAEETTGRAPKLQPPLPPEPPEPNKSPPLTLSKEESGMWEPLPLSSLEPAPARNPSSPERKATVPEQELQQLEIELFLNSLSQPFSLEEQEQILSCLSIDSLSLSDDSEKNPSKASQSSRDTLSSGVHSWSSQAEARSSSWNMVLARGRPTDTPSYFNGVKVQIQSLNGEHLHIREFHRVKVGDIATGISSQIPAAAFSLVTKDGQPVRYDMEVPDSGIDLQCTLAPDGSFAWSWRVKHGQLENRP

Cc1cc(C#C[C@]2(O)CCN(C)C2=O)cc(-c2nc3c(N)ncnc3s2)c1 [US20240199605, Example 153]
IC50: 0.8 nM
